{"source": "patent US20080027088A1", "about": "“Imidazole-Based Hmg-Coa Reductase Inhibitors” (Warner-Lambert Company, LLC, priority 2004, published 2008)", "type_in_all_cases": "in vivo", "key": {"[1]": {"system": "ApoE KO mice fed a Western diet", "test": "Plasma lipoprotein cholesterol distribution by FPLC, 4 weeks", "conditions": "doses 0.1-1.0 mg/kg/day", "experimental": "(§1) Animal experiments—Male C57BI/6J and ApoE KO mice on C57BI/6J background were obtained from the Jackson Laboratory (Bar Harbor, Me.) or Taconic (Germantown, N.Y.) (Plaque formation in ApoE KO mice is lipid-driven (A. S. Plump et al., Cell. 1992;71 (2):343-53)). Myriocin was mixed with Western diet containing 0.21% cholesterol and 21% fat. 8-12-week-old mice received 0.3 mg myriocin/kg/day for 12 weeks (Table 1). 10-12 week-old ApoE KO mice (n=8) were pre-fed a western diet for 2 weeks and mice received various concentrations of myriocin for 4 weeks in diet admix. Control groups consisted of ApoE KO mice fed normal chow or Western diet without myriocin, and normal chow-fed C57BI/6J mice. Body weight and chow feeding was measured every week to examine the food consumption. For the femoral artery cuff model, 8-10 week-old male ApoE KO mice were anethetized and the right femoral artery was dissected from its surroundings. A nonconstrictive polyethylene cuff (Portex, 0.40-mm inner diameter, 0.80-mm outer diameter, and 1.5-mm length) was placed looselyaround the right femoral artery.\n(§2) Plasma lipids and serum amyloid A measurement—Mice were sacrificed by CO2 inhalation and blood was collected through cardiac puncture. Plasma concentrations of total cholesterol and triglyceride were determined enzymatically on a Cobas Mira Plus auto-analyzer using Cholesterol R1 and Triglycerides Reagent methods, respectively (Roche Diagnostics, Indiana, USA). Colormetric changes were measured at 500 nm. Lipoproteins were separated from mouse plasma by fast-protein liquid chromatography utilizing a Superose 6HR column. Cholesterol distribution among lipoproteins was determined by in-line post column analysis (K. A. Kieft, T. M. Bocan and B. R. Krause, J. Lipid Res. 1991; 32:859-66). Serum Amyloid A (SAA) protein in plasma was measured by ELISA according to the manufacturer's instructions (Biosource).\nFIG. 2. […] Cholesterol distribution among lipoproteins was determined by in-line post column analysis (Kieft, K. A., T. M. A. Bocan, B. R. Krause, J. Lipid Res. 1991, 32: 859-866). […]"}, "[2]": {"system": "ApoE KO mice fed a Western diet", "test": "Plasma total cholesterol and triglyceride, 4 weeks myriocin diet admix", "experimental": "as §1, §2\nFIG. 3. Plasma Cholesterol and Triglycerides in ApoE KO Mice Fed a Western Diet. After 4 weeks of diet admix myriocin treatment, mice were sacrificed and plasma was isolated. Plasma concentrations of total cholesterol (A) and triglyceride (B) were determined enzymatically on a Cobas Mira Plus auto-analyzer using Cholesterol R1 and Triglycerides Reagent methods, respectively. Colormetric changes were measured at 500 nm. The values reported are mean±SEM (n=8, *P<0.01)."}, "[3]": {"system": "ApoE KO mice fed a Western diet", "test": "Plasma total cholesterol and triglyceride, 12 weeks", "conditions": "0.3 mg/kg/day", "experimental": "as §1, with “For the femoral artery cuff model, 8-10 week-old male ApoE KO mice were anethetized and the right femoral artery was dissected from its surroundings. A nonconstrictive polyethylene cuff (Portex, 0.40-mm inner diameter, 0.80-mm outer diameter, and 1.5-mm length) was placed looselyaround the right femoral artery.” left out\nPlasma lipids and serum amyloid A measurement—Mice were sacrificed by CO2 inhalation and blood was collected through cardiac puncture. Plasma concentrations of total cholesterol and triglyceride were determined enzymatically on a Cobas Mira Plus auto-analyzer using Cholesterol R1 and Triglycerides Reagent methods, respectively (Roche Diagnostics, Indiana, USA). Colormetric changes were measured at 500 nm. […] Cholesterol distribution among lipoproteins was determined by in-line post column analysis (K. A. Kieft, T. M. Bocan and B. R. Krause, J. Lipid Res. 1991; 32:859-66). […]\nFIG. 7. […] Colormetric changes were measured at 500 nm. […]"}, "[4]": {"system": "ApoE KO mice fed a Western diet", "test": "Plasma serum amyloid A by ELISA, cuffed femoral artery study", "conditions": "4 weeks", "experimental": "as §2\nFIG. 5. Lesion Development in the Cuffed Femoral Artery of ApoE KO mice Fed a Western Diet. Mice were anesthetized and the right femoral artery was dissected from its surroundings. A nonconstrictive polyethylene cuff (Portex, 0.40-mm inner diameter, 0.80-mm outer diameter, and 1.5-mm length) was placed looselyaround the right femoral artery. […] Atherosclerotic lesion (black bar) and macrophage size (gray bar) in the femoral artery were quantified by using Image Pro Plus software (FIG. 5A). Plasma serum amyloid A levels were determined by colormetric ELISA (FIG. 5B). […]"}, "[5]": {"system": "ApoE KO mice fed a Western diet", "test": "Plasma lipoprotein cholesterol distribution by FPLC, 12 weeks", "conditions": "0.3 mg/kg/day", "experimental": "as §1, §2\nFIG. 6. Plasma Lipoprotein Distribution of ApoE KO Mice Fed a Western Diet. After 12 weeks of diet admix myriocin treatment (0.3 mg/kg/day), mice were sacrificed and plasma was isolated for lipoprotein composition. βVLDL (A), LDL (B) and HDL (C) Lipoproteins were separated from mouse plasma by fast-protein liquid chromatography (FPLC) utilizing a Superose 6HR column. Cholesterol distribution among lipoproteins was determined by in-line post column analysis (Kieft, K. A., T. M. A. Bocan, B. R. Krause, J. Lipid Res. 1991, 32:859-866.). The values reported are mean±SEM (n=5, *P<0.01, Western diet vs other study groups; n=5, #P<0.05, Western diet plus myriocin vs normal chow)."}, "[6]": {"conditions": "vs Western diet-fed ApoE KO mice"}}}
{"smiles": "CCCCCCC(=O)CCCCCC/C=C/C[C@@H](O)[C@H](O)[C@@](N)(CO)C(=O)O", "note": "[myriocin]", "values": [{"measurement": "HDL-cholesterol raised", "setting": "[1]", "value": 2.1, "unit": "fold"}, {"measurement": "LDL-cholesterol lowered, at maximum", "setting": "[1]", "value": 63, "unit": "%"}, {"measurement": "VLDL-cholesterol lowered, at maximum", "setting": "[1]", "value": 83, "unit": "%"}, {"measurement": "effect on plasma TG levels", "setting": "[2]; 0.1 mg/kg/day", "value": "no effect"}, {"measurement": "plasma cholesterol reduction", "setting": "[2]; 0.1 mg/kg/day, vs no-myriocin control", "value": 46, "unit": "%"}, {"measurement": "plasma TG levels lowered", "setting": "[2]; 0.3 mg/kg/day", "value": 44, "unit": "%"}, {"measurement": "plasma cholesterol decrease (maximum)", "setting": "[2]; 0.3 mg/kg/day, vs no-myriocin control", "value": 76, "unit": "%"}, {"measurement": "plasma TG lowered", "setting": "[3]", "value": 45, "unit": "%"}, {"measurement": "plasma cholesterol lowered", "setting": "[3]", "value": 41, "unit": "%"}, {"measurement": "plasma serum amyloid A lowered", "setting": "[4]", "value": 84, "unit": "%"}, {"measurement": "plasma apoB levels", "setting": "[5]; comparable to standard chow-fed group", "value": "lowered"}, {"measurement": "HDL-cholesterol content increased", "setting": "[5]; [6]", "value": 54, "unit": "%"}, {"measurement": "LDL-cholesterol lowered", "setting": "[5]; [6]", "value": 35, "unit": "%"}, {"measurement": "βVLDL-cholesterol lowered", "setting": "[5]; [6]", "value": 51, "unit": "%"}]}
